According to patent US20140080787A1, “Method for the Treatment of Neuropathies Associated with Charcot-Marie-Tooth 1A (CMT1A) Disease” (National Institutes of Health, US Dept of Health and Human …, priority 2012, published 2014):

What was measured:
PMP22 [1] = experiment: PMP22 expression in S16 Schwann cells, quantitative rtPCR; assay type: cell-based; details: for RQ (Relative Quantity) PMP22-P1 / RQ (Relative Quantity) PMP22-P2: normalized to beta-actin, untreated = 1.000; for PMP22 P1 relative level of expression / PMP22 P2 relative level of expression: 24 h, S16 Schwann cells, relative to untreated control, normalized to 18S rRNA, ± S.D.
Experimental: To determine if proteasome inhibitors affect endogenous PMP22 expression, quantitative rtPCR was utilized to measure the abundance of PMP22 mRNA transcript in the S16 Schwann cells, which were plated in 6 well plates and treated with each compound at the indicated concentrations. After 24 h., the cells were harvested to purify RNA, 1 μg of which was converted into cDNA. Quantitative rtPCR was performed in either SYBR green-based reactions or Taqman-based customized 384-well micro fluidic arrays using a ViiA7 system or StepOne Plus (Applied Biosystems). Abundance of gene expression was first normalized to beta-actin (ActB, NM_031144.2) or 18 S rRNA, which served as an endogenous loading control across samples, and then determined relative to the untreated sample for each gene using the comparative Ct method described by K. J. Livak and T. D. Schmittgen (Analysis of relative gene expression data using real-time quantitative PCR and the 2^ΔΔCT method. Methods, 2001, 25, 402-408).
S16 Schwann cells were treated with indicated proteasome inhibitors for 24 h. RNA was prepared and analyzed by quantitative rtPCR using promoter specific primers for PMP22 (labeled P1 and P2). Relative levels of expression are shown relative to untreated control cells. Values are normalized to 18S rRNA. Errors reflect the standard deviation (S.D.) of technical duplicates.
RQ=Relative Quantity, normalized to beta-actin

PMP22 [2] = experiment: PMP22 expression in sciatic nerve of CMT1A rats, quantitative rtPCR; assay type: in vivo, rat; details: vehicle = 1.00, ± SEM
From the text: Abundance of gene expression could be determined relative to an untreated sample for each gene using the comparative Ct method as described in the procedure published by K. J. Livak and T. D. Schmittgen (Analysis of relative gene expression data using real-time quantitative PCR and the 2^ΔΔCT method. Methods, 2001, 25, 402-408).
Changes in the expression of peripheral and central nervous system gene makers (including myelin markers such as PMP22, P0, and Myelin Basic Protein) were followed after proteasome inhibitor administration, and a reduction of PMP22 expression was observed. Changes in PMP22 gene expression were correlated with measures of neurological function that are used to measure the CMT1A neuropathy. These measures of neurological function included measures of motor coordination, nerve conduction velocity, and histology of femoral motor and sensory nerves. Relevant measures of CMT1A function have been outlined by J. C. Noreel and co-authors (Behavioural profiling of a murine Charcot-Marie-Tooth disease type 1A model. Eur. J. Neurosci. 2001, 13, 1625-1634).
Bortezomib was administered subcutaneously (s.c.) at a dose equivalent to 0.1 mg substance/kg of body weight, using an injection concentration of 2.5 mg of substance/ml. RNA was purified from sciatic nerve at 7 d post-injection. […] Errors indicate the standard error of the mean (SEM).
Oprozomib (ONX-0912) was administered at the indicated doses by oral gavage and RNA was purified from sciatic nerve at 7 d. […] Errors indicate SEM. Vehicle was 10% EtOH, 10% Tween80, 80% 10 mM citrate buffer pH=3.5 (see; Zhou, H-J. et al., Design and Synthesis of an Orally Bioavailable and Selective Peptide Epoxyketone Proteasome Inhibitor (PR-047). J. Med. Chem., 2009, 52, 3028-3038).

human PMP22 gene = experiment: Orthogonal reporter assays (firefly luciferase or β-lactamase coupled to the intronic regulatory element of the human PMP22 gene); assay type: cell-based; details: targeted screening, firefly luciferase and β-lactamase reporters
From the text: A cross-validating pair of orthogonal reporter assays, which employ either firefly luciferase or β-lactamase coupled to the intronic regulatory element of the human PMP22 gene, were used to measure CMT1A PMP22 overexpression as a means of identifying transcriptional inhibitors with therapeutic value toward CMT1A. […] A description of assays and methods used to identify compounds has been provided by S-W Jang and co-authors (Identification of drug modulators targeting gene-dosage disease. ACS Chem Biol., 2012, 7, 1205-1213).

PMP22 [3] = experiment: Effect on PMP22 expression in mice after a single s.c. injection; assay type: in vivo; details: 10 mg/kg, n = 4, vehicle printed 0.739 ± 0.07
From the text: MLN9708. Anatomical areas of subcutaneous administration could include the right or left thigh, or abdomen. The same anatomical area can be used for repeated administration. However, injections are typically to be rotated between sites (see; Fledrich, R. M. et al., Murine therapeutic models for Charcot-Marie-Tooth (CMT) disease. British Medical Bulletin, 2012, 102, 89-113).

[4] = 0.1 mg/kg s.c., sciatic nerve, 7 d post-injection, n = 9
[5] = 10 mg/kg oral gavage, sciatic nerve at 7 d, n = 7
[6] = 30 mg/kg oral gavage, sciatic nerve at 7 d, n = 7

For CC(C)C[C@H](NC(=O)[C@H](Cc1ccccc1)NC(=O)c1cnccn1)B(O)O [Bortezomib, [(1R)-3-methyl-1-({(2S)-3-phenyl-2-[(pyrazin-2-ylcarbonyl)amino]propanoyl}amino)butyl]boronic acid], the “RQ (Relative Quantity) PMP22-P1” value (PMP22 [1]; 10 nM) was 0.517, the “RQ (Relative Quantity) PMP22-P2” value (PMP22 [1]; 10 nM) was 0.809 and the “RQ (Relative Quantity) PMP22-P1” value (PMP22 [1]; 100 nM) was 0.032. The “RQ (Relative Quantity) PMP22-P2” value (PMP22 [1]; 100 nM) was 0.153, the “RQ (Relative Quantity) PMP22-P1” value (PMP22 [1]; 1 μM) was 0.041 and the “RQ (Relative Quantity) PMP22-P2” value (PMP22 [1]; 1 μM) was 0.232. The “RQ (Relative Quantity) PMP22-P1” value (PMP22 [1]; 10 μM) was 0.077, the “RQ (Relative Quantity) PMP22-P2” value (PMP22 [1]; 10 μM) was 0.285 and the “PMP22 P1 relative level” value (PMP22 [2]; [4]) was 0.675 ± 0.17. The “PMP22 P2 relative level” value (PMP22 [2]; [4]) was 0.4 ± 0.07, the “Total PMP22 relative level” value (PMP22 [2]; [4]) was 0.3 ± 0.05 and the “Effect on CMT1A PMP22 overexpression in reporter assays” value (human PMP22 gene) was “selectively reducing CMT1A expression”.
For CC(C)C[C@H](NC(=O)[C@H](CCc1ccccc1)NC(=O)CN1CCOCC1)C(=O)N[C@@H](Cc1ccccc1)C(=O)N[C@@H](CC(C)C)C(=O)[C@@]1(C)CO1 [Carfilzomib, (S)-4-nethyl-N-((S)-1-(((S)-4-methyl-1-((R)-2-methyloxiran-2-yl)-1-oxopentan-2-yl)amino)-1-oxo-3-phenylpropan-2-yl)-2-((S)-2-(2-morpholinoacetamido)-4-phenylbutanamido)pentanamide], the “PMP22 P1 relative level of expression” value (PMP22 [1]; 1 nM) was 0.003 ± 0.0004, the “PMP22 P2 relative level of expression” value (PMP22 [1]; 1 nM) was 0.012 ± 0.004 and the “PMP22 P1 relative level of expression” value (PMP22 [1]; 2.5 nM) was 0.006 ± 0.0005. For the same molecule, the “PMP22 P2 relative level of expression” value (PMP22 [1]; 2.5 nM) was 0.027 ± 0.0037, the “PMP22 P1 relative level of expression” value (PMP22 [1]; 5 nM) was 0.006 ± 0.0019 and the “PMP22 P2 relative level of expression” value (PMP22 [1]; 5 nM) was 0.037 ± 0.00026. The “PMP22 P1 relative level of expression” value (PMP22 [1]; 10 nM) was 0.014 ± 0.0007, the “PMP22 P2 relative level of expression” value (PMP22 [1]; 10 nM) was 0.046 ± 0.0022 and the “PMP22 P1 relative level of expression” value (PMP22 [1]; 100 nM) was 0.009 ± 0.0055. For the same molecule, the “PMP22 P2 relative level of expression” value (PMP22 [1]; 100 nM) was 0.027 ± 0.017, the “PMP22 P1 relative level of expression” value (PMP22 [1]; 1 μM) was 0.008 ± 0.0024 and the “PMP22 P2 relative level of expression” value (PMP22 [1]; 1 μM) was 0.036 ± 0.0049.
For CC(C)C[C@H](NC(=O)CNC(=O)c1cc(Cl)ccc1Cl)B(O)O [MLN2238, (R)-1-(2-(2,5-dichlorobenzamido)acetamido)-3-methylbutylboronic acid], the “PMP22 P1 relative level of expression” value (PMP22 [1]; 25 nM) was 1.177 ± 0.42, the “PMP22 P2 relative level of expression” value (PMP22 [1]; 25 nM) was 0.837 ± 0.041 and the “PMP22 P1 relative level of expression” value (PMP22 [1]; 50 nM) was 0.826 ± 0.225. The “PMP22 P2 relative level of expression” value (PMP22 [1]; 50 nM) was 0.865 ± 0.141, the “PMP22 P1 relative level of expression” value (PMP22 [1]; 100 nM) was 0.005 ± 0.0005 and the “PMP22 P2 relative level of expression” value (PMP22 [1]; 100 nM) was 0.020 ± 0.005. For the same molecule, the “PMP22 P1 relative level of expression” value (PMP22 [1]; 1 μM) was 0.003 ± 0.0007, the “PMP22 P2 relative level of expression” value (PMP22 [1]; 1 μM) was 0.022 ± 0.0026 and the “PMP22 P1 relative level of expression” value (PMP22 [1]; 10 μM) was 0.007 ± 0.00003. The “PMP22 P2 relative level of expression” value (PMP22 [1]; 10 μM) was 0.018 ± 0.0123.
With CC(C)C[C@H](NC(=O)CNC(=O)c1cc(Cl)ccc1Cl)B1OC(=O)CC(CC(=O)O)(C(=O)O)O1 (stereo partly drawn) [MLN9708, 4-(carboxymethyl)-2-((R)-1-(2-(2,5-dichlorobenzamido)acetamido)-3-methylbutyl)-6-oxo-1,3,2-dioxaborinane-4-carboxylic acid] the “Total PMP22 relative level” value (PMP22 [3]) was 1.00 ± 0.09.
COC[C@H](NC(=O)c1cnc(C)s1)C(=O)N[C@@H](COC)C(=O)N[C@@H](Cc1ccccc1)C(=O)[C@@]1(C)CO1 [Oprozomib, O-methyl-N-[(2-methyl-5-thiazolyl)carbonyl]-L-seryl-O-methyl-N-[(1S)-2-[(2R)-2-methyl-2-oxiranyl]-2-oxo-1-(phenylmethyl)ethyl]-L-serinamide] was tested, and the “PMP22 P1 relative level” value (PMP22 [2]; [5]) was 0.46 ± 0.15, the “PMP22 P2 relative level” value (PMP22 [2]; [5]) was 3.1 ± 0.9 and the “Total PMP22 relative level” value (PMP22 [2]; [5]) was 0.62 ± 0.17. For the same molecule, the “PMP22 P1 relative level” value (PMP22 [2]; [6]) was 0.46 ± 0.1, the “PMP22 P2 relative level” value (PMP22 [2]; [6]) was 1.87 ± 0.77 and the “Total PMP22 relative level” value (PMP22 [2]; [6]) was 0.61 ± 0.07.
